Entries after “also recorded” stand apart in the source; their conditions may differ. Where two headings read alike, the source gives them in different places. Square brackets hold non-standard residues; d marks the D form. Ends that are not written are not given here. * marks the point of attachment. Biotin = O=C1N[C@H]2[C@H](CS[C@H]2CCCCC(=O)*)N1; code O = not defined here; Ahx = NCCCCCC(=O)O
Legend:
[1] = system: antibodies in TETAQUIN® (anti-TTd antibodies); format: binding, human; settings: for binding to TETAQUIN (screen of overlapping 22-mer TTx peptides): FIG. 3 (α-chain), FIG. 4 (β-chain)
[2] = system: antibodies in individual human sera (e.g. serum 034960); assay: Tettox ELISA of biotinylated peptides on individual human sera; format: binding; settings: human serum 034960 diluted 100x
Protocol: a 96-wells plate (preferably from Euro-Diagnostica, Arnhem, The Netherlands) is coated with streptavidin. The streptavidin coated 96 wells plate is blocked with PBS containing 5% BSA (200 μl/well, 1 h, room temperature). Subsequently, the plate is washed three times with PBS containing 0.05% TWEEN20® (polysorbate 20). A biotinylated peptide is coated by 1 h incubation at room temperature with 100 μl/well of a 2 μg/ml solution of the biotinylated peptide in PBS containing 1% BSA. The plate is washed three times with PBS containing 0.05% TWEEN20® (polysorbate 20) followed by incubation for 1 h at room temperature with 100 μl serum from […] a human subject as defined above (preferably having a high titer of anti-TTd antibodies) that had been diluted at least 100, 200, 400, 500 or 1000 times and preferably not more than 100,000, 10,000, 7,500, 5,000 or 2,500 times with PBS containing 1% BSA. Then the plate is washed three times with PBS containing 0.05% TWEEN20®(polysorbate 20). Each well is incubated for 1 h at room temperature with a HRP-conjugated IgG antibody (mouse anti-human IgG-HRP monoclonal, clone G18-145, cat no 555788, Becton Dickinson, 100 μl/well of a 1000× dilution in PBS containing 0.05% TWEEN20® (polysorbate 20)) after which the plate is washed three times with PBS containing 0.05% TWEEN20® (polysorbate 20). Development is performed with 2,2′-azino-di-(3-ethylbenzthiazoline sulfonic acid), ABTS+H2O2 1/1000, 100 μl/well. Optical density is measured at 415 nm with a BIO-RAD, model 680, microplate reader. In each plate, preferably a negative contol is included, more preferably at least in triplicate. A preferred negative contol is serum from a human subject without detectable anti-TTd antibodies. Another preferred negative control is a solution of BSA. A peptide according to (ii) above is a peptide according to the invention if it is bound by antibodies in at least 40, 45, 50, 55, 60, 65, 70, 75, 80, 85, 87, 90, 91, 92, 93, 94, 95, 96, 97, 98, 99% most preferably 100% of the tested human serum samples. A peptide is considered to be bound by antibodies in a serum sample if the determined optical density for that particular serum sample is at least 2.0, more preferably 2.5, 3.0, 3.5 or more times higher as compared to the optical density that is determined for the negative control.
Streptavidin coated 96 wells plates (Euro-Diagnostica) were blocked with PBS containing 5% BSA (200 μl/well, 1 h, room temperature). Plates were washed three times with PBS containing 0.05% TWEEN20® (polysorbate 20). Coating of the biotinylated peptides was performed by 1 h incubation at room temperature with 100 μl/well of a 2 μg/ml solution of the biotinylated peptide in PBS containing 1% BSA. Plates were washed three times with PBS containing 0.05% TWEEN20®. Wells were incubated for 1 h at room temperature with either 100 μl TETAQUIN® […] that had been diluted 800× with PBS containing 1% BSA or with 100 μl human serum that had been diluted 100× with PBS containing 1% BSA. Plates were washed three times with PBS containing 0.05% TWEEN20® (polysorbate 20). Each well was incubated for 1 h at room temperature with a HRP-conjugated IgG antibody (mouse anti-human IgG-HRP monoclonal, clone G18-145, cat no 555788, Becton Dickinson, 100 μl/well of a 1000× dilution in PBS containing 0.05% TWEEN20® (polysorbate 20)). Plates were washed three times with PBS containing 0.05% TWEEN20® (polysorbate 20). Development was performed with 2,2′-azino-di-(3-ethylbenzthiazoline sulfonic acid), ABTS+H2O2 1/1000, 100 μl/well. Optical density was measured at 415 nm with a BIO-RAD, model 680, microplate reader.
Thereafter, the inventors tested these 7 peptides on individual sera, because an epitope is needed to which every person makes antibodies.

[3] = Table 6, conservative substitutions scan of […]
[4] = Table 3, further length variants and Lys(formyl) variants, […], neg. control OD 0.30
[5] = Table 2, length variants of peptide β-32, section 'With linker', […] diluted 800x, OD at 415 nm
[6] = Table 2, length variants of peptide β-32, section 'Without linker' (sequence listed without Z O), […]

Substance	ELISA OD TETAQUIN ([1]; Table 5, Ala scan of […])	ELISA OD SERUM 034960 ([2]; Table 5, Ala scan of […])	OD [1, 5]	OD [1, 6]	further results
A I G I T E L K K L E S K I N K V F Z O [0942-10]	1.12	1.29			
F A G I T E L K K L E S K I N K V F Z O [0942-11]	1.04	1.18			
F I A I T E L K K L E S K I N K V F Z O [0942-12]	0.65	0.23			
F I G A T E L K K L E S K I N K V F Z O [0942-13]	0.30	0.18			
F I G I A E L K K L E S K I N K V F Z O [0942-14]	0.38	0.16			
F I G I S E L K K L E S K I N K V F Z O [0942-32]					ELISA OD TETAQUIN [1, 3]: 0.83; ELISA OD SERUM 034960 [2, 3]: 0.70
F I G I T A L K K L E S K I N K V F Z O [0942-15]	1.24	1.28			
F I G I T D L K K L E S K I N K V F Z O [0942-33]					ELISA OD TETAQUIN [1, 3]: 1.01; ELISA OD SERUM 034960 [2, 3]: 0.95
F I G I T E A K K L E S K I N K V F Z O [0942-16]	0.90	0.91			
F I G I T E I K K L E S K I N K V F Z O [0942-34]					ELISA OD TETAQUIN [1, 3]: 0.72; ELISA OD SERUM 034960 [2, 3]: 0.80
F I G I T E L A K L E S K I N K V F Z O [0942-17]	0.62	0.65			
F I G I T E L K A L E S K I N K V F Z O [0942-18]	1.06	1.22			
F I G I T E L K K A E S K I N K V F Z O [0942-19]	0.70	0.71			
F I G I T E L K K I E S K I N K V F Z O [0942-37]					ELISA OD TETAQUIN [1, 3]: 1.11; ELISA OD SERUM 034960 [2, 3]: 1.14
F I G I T E L K K L A S K I N K V F Z O (FIGITELKKLASKINKVF[Ahx]K; not fully specified (residue 20)) [0942-20]	0.85	0.91			
F I G I T E L K K L D S K I N K V F Z O (FIGITELKKLDSKINKVF[Ahx]K; not fully specified (residue 20)) [0942-38]					ELISA OD TETAQUIN [1, 3]: 0.41; ELISA OD SERUM 034960 [2, 3]: 0.37
F I G I T E L K K L E A K I N K V F Z O (FIGITELKKLEAKINKVF[Ahx]K; not fully specified (residue 20)) [0942-21]	1.27	1.48			
F I G I T E L K K L E S A I N K V F Z O (FIGITELKKLESAINKVF[Ahx]K; not fully specified (residue 20)) [0942-22]	1.10	1.27			
F I G I T E L K K L E S K A N K V F Z O (FIGITELKKLESKANKVF[Ahx]K; not fully specified (residue 20)) [0942-23]	0.88	1.08			
F I G I T E L K K L E S K I A K V F Z O (FIGITELKKLESKIAKVF[Ahx]K; not fully specified (residue 20)) [0942-24]	1.37	1.29			
F I G I T E L K K L E S K I N A V F Z O (FIGITELKKLESKINAVF[Ahx]K; not fully specified (residue 20)) [0942-25]	1.30	1.28			

Substance	ELISA OD TETAQUIN ([1]; Table 5, Ala scan of […])	ELISA OD SERUM 034960 ([2]; Table 5, Ala scan of […])	OD [1, 5]	OD [1, 6]	further results
KALNPKEIEKLYTSYLSITFLRZO [β54]					binding to TETAQUIN (screen of overlapping 22-mer TTx peptides) [1]: good binding; also recorded: antibodies present
KFNAYLANKWVFITITNDRLSSZO [β48]					binding to TETAQUIN (screen of overlapping 22-mer TTx peptides) [1]: good binding; also recorded: antibodies present
L K K L E S K I N K V F S T Z O (LKKLESKINKVFST[Ahx]K(Biotin)) [0925-63]					OD [1, 4]: 0.40
L K K L E S K I Z O (LKKLESKI-{Ahx-code O}; reading uncertain) [P29]			0.2	0.2	
QYIKANSKFIGITELKKLES Z O (QYIKANSKFIGITELKKLES-{Ahx-code O}; reading uncertain) [P3]			1.1	1.1	
Q Y I K A N S K F I G I T E L K K L Z O (QYIKANSKFIGITELKKL-{Ahx-code O}; reading uncertain) [P6]			0.75	0.75	
Q Y I K A N S K F I G I T E L K Z O (QYIKANSKFIGITELK-{Ahx-code O}; reading uncertain) [P10]			0.25	0.25	
Q Y I K A N S K F I G I T E Z O (QYIKANSKFIGITE-{Ahx-code O}; reading uncertain) [P15]			0.25	0.25	
Q Y I K A N S K F I G I Z O (QYIKANSKFIGI-{Ahx-code O}; reading uncertain) [P21]			0.2	0.2	
Q Y I K A N S K F I Z O (QYIKANSKFI-{Ahx-code O}; reading uncertain) [P28]			0.2	0.2	
Q Y I K A N S K Z O (QYIKANSK-{Ahx-code O}; reading uncertain) [P36]			0.2	0.2	
S K F I G I T E L K K L E S K I Z O (SKFIGITELKKLESKI-{Ahx-code O}; reading uncertain) [P7]			1.15	1.15	
S K F I G I T E L K K L E S Z O (SKFIGITELKKLES-{Ahx-code O}; reading uncertain) [P12]			0.8	0.8	
S K F I G I T E L K K L Z O (SKFIGITELKKL-{Ahx-code O}; reading uncertain) [P18]			0.45	0.45	
S K F I G I T E L K Z O (SKFIGITELK-{Ahx-code O}; reading uncertain) [P25]			0.2	0.2	
S K F I G I T E Z O (SKFIGITE-{Ahx-code O}; reading uncertain) [P33]			0.2	0.2	
SLTDLGGELCIKIKNEDLTFIAZO [β1]					ELISA OD, effect of longer spacer and C- versus N-terminal biotinylation [1]: 0.12
T E L K K L E S K I N K V F Z O (TELKKLESKINKVF[Ahx]K(Biotin)) [0925-61]					OD [1, 4]: 0.35
T E L K K L E S K I Z O (TELKKLESKI-{Ahx-code O}; reading uncertain) [P22]			0.2	0.2	
T E L K K L E S Z O (TELKKLES-{Ahx-code O}; reading uncertain) [P30]			0.2	0.2	
TSYLSITFLRDFWGNPLRYDTEZO [β55]					binding to TETAQUIN (screen of overlapping 22-mer TTx peptides) [1]: good binding; also recorded: antibodies present
